Measurements taken from patent US20250144049A1, “METHODS, COMPOSITIONS, AND USES RELATED TO THE TREATMENT AND PREVENTION OF LEIGH SYNDROME” (Stealth BioTherapeutics Inc., priority 2023, published 2025).

Key:
[1] = system: Leigh (GM03672) fibroblasts; assay: Erastin cytoprotection assay, Leigh fibroblasts; type: cell-based, human; conditions: 2 μM erastin, 24 hours, FIG. 13
Experimental: (§1) Briefly, Healthy (GM08402) or Leigh (GM03672) fibroblasts were resuspended in assay medium, seeded at 10,000 cells per well in a clear, tissue cultured-treated, 96-well plate, and incubated at 37° C. overnight. Following the incubation, supernatant was manually aspirated from wells, taking care not to disrupt cells. Fibroblasts were co-treated in a final volume of 100 μL with 2 μM erastin (Millipore Corp., Cat #), 250 μM ferric ammonium citrate (FAC), 50 µM ascorbic acid (AA), and a titration of one of each of Compounds 1 to 4 or Vatiquinone ranging from 10 to 1000 nM. Following another 24-hour incubation at 37° C., cell viability was measured using the CellTiter-Glo Luminescent Cell Viability Kit (ProMega) per Manufacturer's instructions. Luminescence units were quantified by GEN5 software on a BioTek SYNERGY neo2 plate reader (LUM filter).
(§2) Briefly, erastin, like RSL3, is known to induce ferroptosis. […] Erastin was incubated with cell fibroblasts for 24 hours to induce ferroptosis. Cells were co-treated with each of Compounds 1 to 4, or Vatiquinone as the test articles. Test articles were administered at a range of concentrations to derive a curve. Cell viability was determined using a commercially available kit that measures ATP production. […] An increase in cell viability as determined by the assay is considered to be protective against ferroptosis.

15-lipoxygenase (15-LO) [2] = assay: 15(S)-HETE ELISA following RSL3 treatment, healthy fibroblasts; type: cell-based, human; conditions: 700 nM RSL3, 1 μM compound, FIG. 10; for inhibition of 15-lipoxygenase (15(S)-HETE in supernatant): 24 hours
Experimental: (§3) Samples for the 15(S)-HETE ELISA were generated by the RSL3 cytoprotection assay described above. Healthy or Leigh fibroblasts were resuspended in assay medium, seeded at 200,000 cells per well in a clear, tissue culture-treated, 24-well plate. Cells were incubated at 37° C. for 24 hours. Supernatant was aspirated from each well following the incubation.
(§4) Fibroblasts from both a healthy individual and a patient diagnosed with Leigh syndrome were examined (but not all compounds were examined in each cell type). Activation of ferroptosis has been implicated as a driver of epilepsy, which is commonly associated with Leigh syndrome. […] Kahn-Kirby et al. PLOS One. […] As a key regulator of ferroptosis, 15-LO serves as a rational therapeutic target in Leigh syndrome.

[3] = Pharmacokinetics of Compound 3 and Compound 4 after five daily subcutaneous doses, plasma, heart, brain; type: in vivo, C57BL/6 mice; conditions: for tolerability: dose levels up to 60 mg/kg, SC injection, 5 daily doses
Experimental: • Animals: Male/C57Bl/6 mice/-18-25 grams were received from an approved vendor. • Fasting was not required for this study. • Body weights were recorded prior to dose administration. The volume of each dose delivered (mL/kg) was based on each individual animal's body weight. • This was a multiple dose terminal study dosed once per day over 5 days. Mice were taken down following their 5th and final dose. • Doses were administered in accordance with test facility standard operating procedures. […] Any abnormalities were recorded. • Pre-formulated Compound 3 and Compound 4 were provided by Study sponsor ready to be dosed for each day in accordance with the Study Design set forth in Table 1, below.
b) Sample collection—Post Dosing: • Terminal blood samples were collected via cardiac puncture following inhalation of anesthesia in accordance with test facility standard operating procedures. • Blood samples were collected into tubes with appropriate anticoagulant. The tubes were stored on wet ice until processed to plasma by centrifugation (3500 rpm at 5° C. for 10 minutes) within 20 minutes of collection. Sample aliquots of 100 μL were transferred into individual uniquely labeled matrix tubes and stored at nominal −80° C. until transferred to analytical chemistry for analysis by LC/MS/MS. • Immediately following each terminal blood collection for all groups, animals were sacrificed and perfused with cold PBS. The following tissues were collected: heart and brain in accordance with Table 2. • Plasma and tissue samples were processed for analysis by LC/MS/MS to determine the amounts/concentrations reported in the FIGS. 18-21.

[4] = system: Leigh fibroblasts (GM03672); assay: Mitochondrial membrane potential (TMRM flow cytometry) in RSL3-treated Leigh fibroblasts; type: cell-based, human; conditions: 1 μM RSL3 with 1 μM compound, 4 hours
Experimental: Leigh fibroblasts (GM03672) were seeded in a 24-well, tissue culture-treated plate in complete MEM (MEM+15% FBS+1% penicillin/streptomycin) at a density of 1×10^5 cells per 500 μL and incubated overnight at 37° C. at 5% CO2. Cells were treated for 4 hours at 37° C. with either 1 μM RSL3, 1 μM RSL3 with 1 μM Compound 3 or media for untreated cells. Following the incubation, supernatant was removed and cells were treated with 0.25% trypsin for 5 min at 37° C. Trypsin was neutralized with an equal part MEM. Cells were dislodged with gentle pipetting and pelleted at 300×g for 5 minutes. Pellets were resuspended in 500 μL Fluobrite DMEM and cells were transferred to a 96-well, v-bottom plate. Cells were stained with 20 nM MitoTracker Green and 100 nM tetramethylrhodamine methyl ester (TMRM) Samples were incubated for 25 minutes at 37° C. Each well was mixed immediately prior to analysis to resuspend settled cells. Fluorescence intensity was measured on the BD Accuri C6 Plus Flow Cytometer. A minimum of 10,000 events per sample was collected. Data analysis was performed using FloJo vs. 10. Gating was performed by establishing an initial forward scatter vs. side scatter gate. […] Median fluorescence intensity (MFI) of TMRM fluorescence was determined. Using GraphPad Prism 10, statistical significance between groups was determined by One-way ANOVA. […]

15-lipoxygenase (15-LO) [5] = assay: 15(S)-HETE ELISA following RSL3 treatment, Leigh fibroblasts; type: cell-based, human; conditions: 700 nM RSL3, 1 μM compound, FIG. 11
Experimental: as §3, §4

[6] = system: Healthy (GM08402) fibroblasts; assay: Erastin cytoprotection assay, healthy fibroblasts; type: cell-based, human; conditions: 2 μM erastin, 24 hours, FIG. 12
Experimental: as §1, §2

Structure (SMILES)	protective effect compared among test articles [1]	inhibition of 15-lipoxygenase (15(S)-HETE in supernatant) (15-lipoxygenase (15-LO) [2])	15-lipoxygenase inhibition compared among test articles (15-lipoxygenase (15-LO) [2])	plasma exposure versus dose ([3]; mouse, 20 mg/kg and 60 mg/kg SC)	heart exposure based on AUC, Compound 3 versus Compound 4 ([3]; mouse, SC)	exposure (Cmax and AUC) heart versus brain ([3]; mouse, SC, after 5th dose)	tolerability ([3]; mouse)	concentration in heart tissue ([3]; mouse, up to 2 hours post administration after 5 days, Compound 3 20 and 60 mg/kg, Compound 4 60 mg/kg SC, FIG. 18)	concentration in brain tissue ([3]; mouse, up to 2 hours post administration after 5 days, Compound 3 20 and 60 mg/kg, Compound 4 60 mg/kg SC, FIG. 19)	protection from loss of mitochondrial membrane potential (TMRM MFI) [4]	15-LO inhibition compared among test articles (15-lipoxygenase (15-LO) [5])	protective effect compared among test articles [6]	brain exposure based on AUC, Compound 4 versus Compound 3 ([3]; male, C57BL/6, mouse, in vivo, sc)	Tmax, Compound 4 versus Compound 3 ([3]; mouse, in vivo, sc)	exposure (Cmax and AUC) heart versus brain ([3]; mouse, in vivo, sc)	half-life, Compound 4 versus Compound 3 ([3]; mouse, in vivo, sc)
CC1=C(C)C(=O)C(CC[C@@](C)(O)COCCC[Si](C)(C)C)=C(C)C1=O [Compound 3]	superior in their protective effect	inhibited 15-lipoxygenase	superior to Compounds 2, 4 and Vatiquinone	roughly proportional to dose	slightly higher	higher in heart than in brain	well tolerated	up to microgram quantities of drug per gram of heart tissue	up to microgram quantities of drug per gram of brain tissue	protective	roughly equivalent protective effect	superior in their protective effect	–	–	–	–
CC1=C(C)C(=O)C(CC[C@](C)(O)CCCCCCCCC(F)(F)F)=C(C)C1=O [Compound 4]	about equally protective	inhibited 15-lipoxygenase	roughly equivalent protective effect	–	–	–	well tolerated	–	–	protective	roughly equivalent protective effect	about equally protective	somewhat higher than Compound 3	typically later	no difference	tended to be longer
